Data: patent US11261201B2 (priority 2018, dated 2022)
≈ marks a conversion by molar mass, not a printed value. Like-named read-outs stand apart in the source and are kept apart here.

What was measured:
H37RvMA = experiment: Tuberculosis Alamar Blue/Resazurin assay (MIC); assay type: cell-based; details: Mycobacterium tuberculosis, H37RV, read-out: WT H37Rv MTB Activity
E. coli = experiment: Gram negative MIC protocol (OD600, LB, 24 h); details: Escherichia coli
Description: (§1) Overnight bacterial cultures were grown in LB with no added antibiotics at 37° C. with shaking. A 1:1000 dilution of these cultures into LB was exposed to concentration gradients of compounds in 96-well plates (100 μL per well assay volume). Resulting plates were incubated at 37° C. for 24 h without shaking, and OD600 was measured at the end of the incubation. MICs were determined as the lowest concentrations at which OD600 remained at baseline.

A. baumannii = experiment: Gram negative MIC protocol (OD600, LB, 24 h); details: Acinetobacter baumannii
Description: as §1

[1] = read-out: MIC E. coli delta-TolC LB Media, E. coli delta-TolC, LB media, OD600
[2] = read-out: MIC WT E. coli LB Media, WT E. coli, LB media, OD600
[3] = read-out: MIC A. baumannii LB Media, A. baumannii, LB media, 24 h, OD600
[4] = read-out: MIC A. baumannii LB Media

Row | SMILES | MIC (H37RvMA) [µM] | MIC (E. coli; [1]) [µM] | MIC (E. coli; [2]) [µM] | MIC (A. baumannii; [3]) [µM] | MIC (H37RvMA; WT H37Rv MTB) [µM] | MIC (A. baumannii; [4]) [µM]
1 | COc1ccc(C(C)CNCc2ccccc2)cc1OC (stereo not drawn) [B44] | > 150 | > 150 | > 150 | > 150 | – | –
2 | c1ccc(CNCC2C3CCc4ccccc4C32)cc1 (stereo not drawn) [B45] | – | > 150 | > 150 | > 150 | 91 (≈ 24 µg/mL) | –
3 | c1ccc(CNCCC2COc3ccccc3O2)cc1 (stereo not drawn) [B46] | – | > 150 | > 150 | > 150 | > 150 | –
4 | CC(Cc1ccn(C(C)C)n1)NCc1ccccc1 (stereo not drawn) [B47] | > 150 | > 150 | > 150 | > 150 | – | –
5 | C1=Nc2c(cccc2CCNCc2ccccc2)C1 [B48] | 150 (≈ 37.6 µg/mL) | > 150 | > 150 | – | – | 150 (≈ 37.6 µg/mL)
6 | c1ccc(CNC2(Cc3ccccc3)CC2)cc1 [B49] | – | > 150 | > 150 | > 150 | > 150 | –
7 | COc1ccc(CC(C)(C)NCc2ccccc2)cc1 [B50] | > 150 | > 150 | > 150 | – | – | > 150
8 | CC(C)=CCCNCc1ccccc1 [B51] | – | > 150 | > 150 | > 150 | > 150 | –
9 | COC1(CC(C)NCc2ccccc2)CCC1 (stereo not drawn) [B52] | – | > 150 | > 150 | > 150 | > 150 | –
10 | C[C@H](NCc1ccccc1)[C@H](O)c1ccc2c(c1)OCO2 [B53] | > 150 | > 150 | > 150 | > 150 | – | –
11 | COc1ccc(C(C)C(C)NCc2ccccc2)cc1OC (stereo not drawn) [B54] | > 150 | > 150 | > 150 | > 150 | – | –
12 | Clc1cc(CCNCc2ccccc2)cc2c1OCCO2 [B55] | 150 (≈ 45.6 µg/mL) | > 150 | > 150 | – | – | > 150
13 | c1ccc(CNCCc2ccc3[nH]ccc3c2)cc1 [B56] | > 150 | > 150 | > 150 | – | – | > 150
14 | C1=Nc2cccc(CCNCc3ccccc3)c2C1 [B57] | > 150 | > 150 | > 150 | – | – | > 150
15 | c1ccc(CNCCc2ccc3cn[nH]c3c2)cc1 [B58] | – | > 150 | > 150 | > 150 | > 150 | –
16 | c1ccc(CNCC2C3CC4CC(C3)CC2C4)cc1 (stereo not drawn) [B59] | – | > 150 | > 150 | > 150 | 33 (≈ 8.43 µg/mL) | –
17 | OC1(CCNCc2ccccc2)CC2CCC1C2 (stereo not drawn) [B60] | – | > 150 | > 150 | > 150 | > 150 | –
18 | c1ccc(CNC[C@@H]2C[C@H]2c2ccccc2)cc1 [B61] | – | > 150 | > 150 | > 150 | > 150 | –
19 | CC(NCc1ccccc1)C1CC2CCC1CC2 (stereo not drawn) [B62] | – | > 150 | > 150 | > 150 | > 150 | –
20 | C1=C(CNCc2ccccc2)CCCC1 [B63] | – | > 150 | > 150 | > 150 | > 150 | –
21 | c1ccc(CNCCN2CC3CCC(C2)O3)cc1 [B64] | > 150 | > 150 | > 150 | > 150 | – | –
22 | c1ccc(CNCCc2ccc3c(c2)COC3)cc1 [B65] | > 150 | > 150 | > 150 | – | – | > 150
23 | c1ccc(CNCCC2CC3CCC2O3)cc1 (stereo not drawn) [B66] | – | > 150 | > 150 | > 150 | > 150 | –
24 | CC(C)(CN1CCOCC1)NCc1ccccc1 [B67] | – | > 150 | > 150 | > 150 | > 150 | –

Row | SMILES | MIC (H37RvMA) [µM] | MIC (E. coli; [1]) [µM] | MIC (E. coli; [2]) [µM] | MIC (A. baumannii; [3]) [µM] | MIC (H37RvMA; WT H37Rv MTB) [µM] | MIC (A. baumannii; [4]) [µM]
25 | COc1ccc(CC(C)NCc2ccccc2)cn1 (stereo not drawn) [B68] | > 150 | > 150 | > 150 | > 150 | – | –
26 | CC1CC1C(C)NCc1ccccc1 (stereo not drawn) [B69] | – | > 150 | > 150 | > 150 | > 150 | –
27 | C1=CC2CC1CC2CCNCc1ccccc1 (stereo not drawn) [B70] | – | > 150 | > 150 | > 150 | > 150 | –
28 | C1=C(CCNCc2ccccc2)CCCCC1 [B71] | – | 90 (≈ 20.6 µg/mL) | 150 (≈ 34.4 µg/mL) | > 150 | 91 (≈ 20.9 µg/mL) | –
29 | CC(C)(CNCc1ccccc1)C1=CCCCC1 [B72] | – | > 150 | > 150 | > 150 | > 150 | –
30 | Cc1cccc(C)c1CNCCC1=CCCCC1 [B73] | – | > 150 | > 150 | > 150 | > 150 | –
31 | CC(C)(CNCc1ccccc1)C1=CCCC1 [B74] | – | > 150 | > 150 | > 150 | > 150 | –
32 | CC(Cc1ccccn1)NCc1ccccc1 (stereo not drawn) [B75] | > 150 | > 150 | > 150 | > 150 | – | –
33 | CC(NCc1ccccc1)C1CC1c1ccc(F)cc1 (stereo not drawn) [B76] | – | > 150 | > 150 | > 150 | > 150 | –
34 | CC(NCc1ccccc1)C1C(C)(C)C1(C)C (stereo not drawn) [B77] | – | > 150 | > 150 | > 150 | > 150 | –
35 | CC1CC(C)CC(C(C)NCc2ccccc2)C1 (stereo not drawn) [B79] | – | > 150 | > 150 | > 150 | 91 (≈ 22.3 µg/mL) | –
36 | CC(NCc1ccccc1)C12C[C@H]3C[C@H](C1)C[C@@H](C2)C3 (stereo partly drawn) [B80] | – | 90 (≈ 24.2 µg/mL) | 250 (≈ 67.4 µg/mL) | > 150 | > 150 | –
37 | CC(Cc1cccc(C(F)(F)F)c1)NCc1ccccc1 (stereo not drawn) [B81] | > 150 | > 150 | > 150 | – | – | > 150
38 | CC(Cc1ncccn1)NCc1ccccc1 (stereo not drawn) [B82] | > 150 | > 150 | > 150 | > 150 | – | –
39 | c1ccc(CNCCC2CCCOC2)cc1 (stereo not drawn) [B83] | – | > 150 | > 150 | > 150 | > 150 | –
40 | COc1cc(CC(C)NCc2ccccc2)ncn1 (stereo not drawn) [B84] | > 150 | > 150 | > 150 | > 150 | – | –
41 | COc1cc(CC(C)NCc2ccccc2)ccn1 (stereo not drawn) [B85] | > 150 | > 150 | > 150 | > 150 | – | –
42 | C[C@H](NCc1ccccc1)[C@@H]1C[C@H]1c1ccccc1 [B86] | – | > 150 | > 150 | > 150 | > 150 | –
43 | CC(NCc1ccccc1)C12CCC(CC1)CC2 (stereo not drawn) [B87] | – | > 150 | 300 (≈ 73 µg/mL) | > 150 | > 150 | –
44 | CC1(C)[C@@H]2C[C@](C)(CNCc3ccccc3)C[C@@H]21 [B88] | – | > 150 | > 150 | > 150 | > 150 | –
45 | CC(NCc1ccccc1)C(C)C1CCCCC1 (stereo not drawn) [B89] | – | > 150 | 300 (≈ 73.6 µg/mL) | > 150 | 91 (≈ 22.3 µg/mL) | –
46 | CC(C)(CN1CCCOCC1)NCc1ccccc1 [B90] | – | > 150 | > 150 | > 150 | > 150 | –
47 | Brc1ccc(CC2(NCc3ccccc3)CC2)cc1 [B91] | > 150 | 90 (≈ 28.5 µg/mL) | > 150 | > 150 | – | –
48 | CC(C)(CC1CCCCCC1)NCc1ccccc1 [B92] | – | > 150 | > 150 | > 150 | > 150 | –
